Square brackets hold non-standard residues; d marks the D form. Peptide text beside a SMILES is read from it.
Key:
E. coli (ATCC 25922) = tested on: E. coli (ATCC 25922); set-up: MIC E. coli: unit not given beside the values; settings: supplementary csv, unit not given
[1] = tested on: human red blood cells (hRBCs); settings: red cells of human, 2 h
Protocol: The hemolytic activity of all the cyclic peptides was determined using human red blood cells (hRBC) purchased from BioIVT, USA. […] Peptide-induced hemolysis was tested in triplicate by mixing 75 μL of the peptide solution in PBS (two-fold serial dilution) with 75 μL of a 4% (v/v) hRBC suspension in phosphate-buffered saline. The plates were incubated for 2 h at 37 °C without agitation and centrifuged at 1000g for 10 min. Aliquots (100 μL) of the supernatant were transferred to 96-well plates, where hemoglobin release was measured spectrophotometrically at 567 nm. Percent hemolysis was calculated by the following formula: [drawing 1] where A represents the absorbance of the peptide sample at 567 nm and A0 and At represent zero percent and 100% hemolysis determined in phosphate-buffered saline and 1% Triton X-100, respectively.

[2] = tested on: K. pneumoniae (ATCC BAA-1705); settings: supplementary csv, unit not given
MRSA (ATCC BAA-1556) = tested on: MRSA (ATCC BAA-1556); set-up: MIC MRSA: unit not given beside the values; settings: supplementary csv, unit not given
[3] = tested on: P. aeruginosa (ATCC 27883); set-up: MIC P. aeruginosa: unit not given beside the values; settings: supplementary csv, unit not given

SMILES	MIC E. coli (E. coli (ATCC 25922))	HC50 [1] [µg/mL]	MIC K. pneumoniae [2]	MIC MRSA (MRSA (ATCC BAA-1556))	MIC P. aeruginosa [3]
N=C(N)NCCC[C@@H]1NC(=O)[C@H](CCCNC(=N)N)NC(=O)[C@H](CCCNC(=N)N)NC(=O)[C@H](Cc2c[nH]c3ccccc23)NC(=O)[C@H](Cc2c[nH]c3ccccc23)NC(=O)[C@H](Cc2c[nH]c3ccccc23)NC(=O)[C@H](Cc2c[nH]c3ccccc23)NC(=O)[C@H](Cc2c[nH]c3ccccc23)NC(=O)[C@H](Cc2c[nH]c3ccccc23)NC(=O)[C@H](CCCNC(=N)N)NC(=O)[C@H](CCCNC(=N)N)NC1=O [5c, [R5W6]] (cyclo(RRRRRWWWWWW))	>256	140	>256	>256	>256
N=C(N)NCCC[C@@H]1NC(=O)[C@H](CCCNC(=N)N)NC(=O)[C@H](Cc2c[nH]c3ccccc23)NC(=O)[C@H](Cc2c[nH]c3ccccc23)NC(=O)[C@H](Cc2c[nH]c3ccccc23)NC(=O)[C@H](Cc2c[nH]c3ccccc23)NC1=O [2b, [R2W4]] (cyclo(RRWWWW); ring closure inferred)	256	85	256	64	256
N=C(N)NCCC[C@@H]1NC(=O)[C@H](CCCNC(=N)N)NC(=O)[C@H](CCCNC(=N)N)NC(=O)[C@H](Cc2c[nH]c3ccccc23)NC(=O)[C@H](Cc2c[nH]c3ccccc23)NC(=O)[C@H](Cc2c[nH]c3ccccc23)NC(=O)[C@H](Cc2c[nH]c3ccccc23)NC(=O)[C@H](Cc2c[nH]c3ccccc23)NC(=O)[C@H](CCCNC(=N)N)NC1=O [4b, [R4W5]]	64	100	128	8	128
N=C(N)NCCC[C@H]1NC(=O)[C@H](Cc2c[nH]c3ccccc23)NC(=O)[C@H](Cc2c[nH]c3ccccc23)NC(=O)[C@H](Cc2c[nH]c3ccccc23)NC(=O)[C@H](Cc2c[nH]c3ccccc23)NC(=O)[C@H](Cc2c[nH]c3ccccc23)NC(=O)[C@H](Cc2c[nH]c3ccccc23)NC(=O)[C@H](Cc2c[nH]c3ccccc23)NC(=O)[C@@H](CCCNC(=N)N)NC(=O)[C@@H](CCCNC(=N)N)NC1=O [3f, [dR3W7]] (cyclo([dR][dR][dR]WWWWWWW))	256	–	256	64	256
N=C(N)NCCC[C@@H]1NC(=O)[C@H](CCCNC(=N)N)NC(=O)[C@H](Cc2c[nH]c3ccccc23)NC(=O)[C@H](Cc2c[nH]c3ccccc23)NC(=O)[C@H](Cc2c[nH]c3ccccc23)NC(=O)[C@H](Cc2c[nH]c3ccccc23)NC(=O)[C@H](CCCNC(=N)N)NC1=O [3b, [R3W4]] (cyclo(RRRWWWW); ring closure inferred)	32	105	64	8	256
N=C(N)NCCC[C@@H]1NC(=O)[C@H](CCCNC(=N)N)NC(=O)[C@H](Cc2c[nH]c3ccccc23)NC(=O)[C@H](Cc2c[nH]c3ccccc23)NC(=O)[C@H](Cc2c[nH]c3ccccc23)NC1=O [2a, [R2W3]] (cyclo(RRWWW); ring closure inferred)	256	120	256	32	256
N=C(N)NCCC[C@@H]1NC(=O)[C@H](CCCNC(=N)N)NC(=O)[C@H](CCCNC(=N)N)NC(=O)[C@H](CCCNC(=N)N)NC(=O)[C@H](Cc2c[nH]c3ccccc23)NC(=O)[C@H](Cc2c[nH]c3ccccc23)NC(=O)[C@H](Cc2c[nH]c3ccccc23)NC(=O)[C@H](Cc2c[nH]c3ccccc23)NC(=O)[C@H](Cc2c[nH]c3ccccc23)NC(=O)[C@H](Cc2c[nH]c3ccccc23)NC(=O)[C@H](CCCNC(=N)N)NC(=O)[C@H](CCCNC(=N)N)NC1=O [6c, [R6W6]] (cyclo(RRRRRRWWWWWW))	64	170	64	16	128
N=C(N)NCCC[C@@H]1NC(=O)[C@H](CCCNC(=N)N)NC(=O)[C@H](CCCNC(=N)N)NC(=O)[C@H](CCCNC(=N)N)NC(=O)[C@H](Cc2c[nH]c3ccccc23)NC(=O)[C@H](Cc2c[nH]c3ccccc23)NC(=O)[C@H](Cc2c[nH]c3ccccc23)NC(=O)[C@H](Cc2c[nH]c3ccccc23)NC(=O)[C@H](CCCNC(=N)N)NC(=O)[C@H](CCCNC(=N)N)NC(=O)[C@H](CCCNC(=N)N)NC1=O [7a, [R7W4]] (cyclo(RRRRRRRWWWW))	32	190	64	16	32
N=C(N)NCCC[C@@H]1NC(=O)[C@H](CCCNC(=N)N)NC(=O)[C@H](Cc2c[nH]c3ccccc23)NC(=O)[C@H](Cc2c[nH]c3ccccc23)NC(=O)[C@H](Cc2c[nH]c3ccccc23)NC(=O)[C@H](Cc2c[nH]c3ccccc23)NC(=O)[C@H](Cc2c[nH]c3ccccc23)NC(=O)[C@H](CCCNC(=N)N)NC1=O [3c, [R3W5]] (cyclo(RRRWWWWW); ring closure inferred)	–	80	–	–	–
N=C(N)NCCC[C@@H]1NC(=O)[C@H](CCCNC(=N)N)NC(=O)[C@H](CCCNC(=N)N)NC(=O)[C@H](CCCNC(=N)N)NC(=O)[C@H](Cc2c[nH]c3ccccc23)NC(=O)[C@H](Cc2c[nH]c3ccccc23)NC(=O)[C@H](Cc2c[nH]c3ccccc23)NC(=O)[C@H](Cc2c[nH]c3ccccc23)NC(=O)[C@H](Cc2c[nH]c3ccccc23)NC(=O)[C@H](Cc2c[nH]c3ccccc23)NC(=O)[C@H](CCCNC(=N)N)NC(=O)[C@H](CCCNC(=N)N)NC(=O)[C@H](CCCNC(=N)N)NC1=O [7c, [R7W6]] (cyclo(RRRRRRRWWWWWW))	64	170	–	32	–
N=C(N)NCCC[C@@H]1NC(=O)[C@H](CCCNC(=N)N)NC(=O)[C@H](Cc2c[nH]c3ccccc23)NC(=O)[C@H](Cc2c[nH]c3ccccc23)NC(=O)[C@H](Cc2c[nH]c3ccccc23)NC(=O)[C@H](Cc2c[nH]c3ccccc23)NC(=O)[C@H](Cc2c[nH]c3ccccc23)NC(=O)[C@H](Cc2c[nH]c3ccccc23)NC(=O)[C@H](CCCNC(=N)N)NC1=O [3d, [R3W6]]	64	65	128	64	256
N=C(N)NCCC[C@H]1NC(=O)[C@H](Cc2c[nH]c3ccccc23)NC(=O)[C@H](Cc2c[nH]c3ccccc23)NC(=O)[C@H](Cc2c[nH]c3ccccc23)NC(=O)[C@H](Cc2c[nH]c3ccccc23)NC(=O)[C@@H](CCCNC(=N)N)NC(=O)[C@@H](CCCNC(=N)N)NC(=O)[C@@H](CCCNC(=N)N)NC1=O [4a, [dR4W4]] (cyclo([dR][dR][dR][dR]WWWW))	16	110	64	8	64
N=C(N)NCCC[C@@H]1NC(=O)[C@H](CCCNC(=N)N)NC(=O)[C@H](CCCNC(=N)N)NC(=O)[C@H](CCCNC(=N)N)NC(=O)[C@H](Cc2c[nH]c3ccccc23)NC(=O)[C@H](Cc2c[nH]c3ccccc23)NC(=O)[C@H](Cc2c[nH]c3ccccc23)NC(=O)[C@H](Cc2c[nH]c3ccccc23)NC(=O)[C@H](Cc2c[nH]c3ccccc23)NC(=O)[C@H](CCCNC(=N)N)NC(=O)[C@H](CCCNC(=N)N)NC(=O)[C@H](CCCNC(=N)N)NC1=O [7b, [R7W5]] (cyclo(RRRRRRRWWWWW))	64	175	–	8	–
N=C(N)NCCC[C@@H]1NC(=O)[C@H](CCCNC(=N)N)NC(=O)[C@H](CCCNC(=N)N)NC(=O)[C@H](CCCNC(=N)N)NC(=O)[C@H](Cc2c[nH]c3ccccc23)NC(=O)[C@H](Cc2c[nH]c3ccccc23)NC(=O)[C@H](Cc2c[nH]c3ccccc23)NC(=O)[C@H](Cc2c[nH]c3ccccc23)NC(=O)[C@H](Cc2c[nH]c3ccccc23)NC(=O)[C@H](Cc2c[nH]c3ccccc23)NC(=O)[C@H](Cc2c[nH]c3ccccc23)NC(=O)[C@H](CCCNC(=N)N)NC(=O)[C@H](CCCNC(=N)N)NC(=O)[C@H](CCCNC(=N)N)NC1=O [7d, [R7W7]] (cyclo(RRRRRRRWWWWWWW))	32	140	–	16	–
N=C(N)NCCC[C@@H]1NC(=O)[C@H](CCCNC(=N)N)NC(=O)[C@H](CCCNC(=N)N)NC(=O)[C@H](CCCNC(=N)N)NC(=O)[C@H](Cc2c[nH]c3ccccc23)NC(=O)[C@H](Cc2c[nH]c3ccccc23)NC(=O)[C@H](Cc2c[nH]c3ccccc23)NC(=O)[C@H](Cc2c[nH]c3ccccc23)NC(=O)[C@H](Cc2c[nH]c3ccccc23)NC(=O)[C@H](Cc2c[nH]c3ccccc23)NC(=O)[C@H](Cc2c[nH]c3ccccc23)NC(=O)[C@H](CCCNC(=N)N)NC(=O)[C@H](CCCNC(=N)N)NC1=O [6d, [R6W7]] (cyclo(RRRRRRWWWWWWW))	128	85	256	64	>256
N=C(N)NCCC[C@@H]1NC(=O)[C@H](CCCNC(=N)N)NC(=O)[C@H](Cc2c[nH]c3ccccc23)NC(=O)[C@H](Cc2c[nH]c3ccccc23)NC(=O)[C@H](Cc2c[nH]c3ccccc23)NC(=O)[C@H](CCCNC(=N)N)NC1=O [3a, [R3W3]] (cyclo(WWWRRR); ring closure inferred)	32	155	64	16	128
N=C(N)NCCC[C@@H]1NC(=O)[C@H](CCCNC(=N)N)NC(=O)[C@H](CCCNC(=N)N)NC(=O)[C@H](Cc2c[nH]c3ccccc23)NC(=O)[C@H](Cc2c[nH]c3ccccc23)NC(=O)[C@H](Cc2c[nH]c3ccccc23)NC(=O)[C@H](Cc2c[nH]c3ccccc23)NC(=O)[C@H](Cc2c[nH]c3ccccc23)NC(=O)[C@H](Cc2c[nH]c3ccccc23)NC(=O)[C@H](Cc2c[nH]c3ccccc23)NC(=O)[C@H](CCCNC(=N)N)NC1=O [4d, [R4W7]] (cyclo(RRRRWWWWWWW))	128	60	256	256	>256

— PMC9743092, “Membrane-Active Cyclic Amphiphilic Peptides: Broad-Spectrum Antibacterial Activity Alone and in Combination with Antibiotics” (Journal of Medicinal Chemistry, 2022)
